In patent US11124499B2, “Pharmaceutical composition derived from Tecoma plant and a method for treating cancer” (National Guard Health Affairs, priority 2018, dated 2021):

Columns and labels:
HL-60 = experiment: MTT cytotoxicity, HL-60; assay type: cell-based; details: HL-60, human acute promyelocytic leukemia, 12 h exposure, mean±SD of three trials
Protocol: (§1) The cytotoxicity of Tecomaphorbide was tested against various cultured cell lines. Cells were exposed to various concentrations of Tecomaphorbide (ranging from 0.0 to 4.0 μM) for 12 h. Subsequently, the exposed cells were incubated with MTT reagent for 4 h and the developed color was analyzed spectrophotometrically. IC50 was determined from the sigmoidal curve of blotting percentage of cell viability versus the logarithm of concentration in μM using Graphpad Prism 6 program. The determined values summarized in Table 2 are the mean±SD value obtained from three independent trials.

MOLM-13 = experiment: MTT cytotoxicity, MOLM-13; assay type: cell-based; details: MOLM-13, human acute monocytic leukemia, 12 h exposure, mean±SD of three trials
Protocol: as §1

MV4-11 = experiment: MTT cytotoxicity, MV4-11; assay type: cell-based; details: MV4-11, human B myelomonocytic leukemia, 12 h exposure, mean±SD of three trials
Protocol: as §1

Jurkat = experiment: MTT cytotoxicity, Jurkat; assay type: cell-based; details: human acute T cell leukemia, 12 h exposure, mean±SD of three trials
Protocol: as §1

K562 = experiment: MTT cytotoxicity, K562; assay type: cell-based; details: K562, human chronic myelogenous leukemia, 12 h exposure, mean±SD of three trials
Protocol: as §1

U937 = experiment: MTT cytotoxicity, U937; assay type: cell-based; details: U-937, U937, human histiocytic lymphoma, 12 h exposure, mean±SD of three trials
Protocol: as §1

MCF-7 = experiment: MTT cytotoxicity, MCF-7; assay type: cell-based; details: MCF7, MCF-7, human breast adenocarcinoma, 12 h exposure, mean±SD of three trials
Protocol: as §1

Caco-2 = experiment: MTT cytotoxicity, Caco-2; assay type: cell-based; details: Caco-2, human colorectal adenocarcinoma, 12 h exposure, mean±SD of three trials
Protocol: as §1

PC-3 = experiment: MTT cytotoxicity, PC-3; assay type: cell-based; details: PC-3, human prostate adenocarcinoma, 12 h exposure, mean±SD of three trials
Protocol: as §1

[1] = system: T-Cell Acute lymphocytic leukemia cell line (Jurkat); experiment: Apoptosis in Jurkat cells (FIG. 2); assay type: cell-based, human
Text: (§2) FIG. 2 is a bar graph summarizing the effect of compound Tecomaphorbide on apoptosis in human acute leukemia T-cells (Jurkat cells) and normal primary T-cells.

normal primary T-cells = experiment: Apoptosis in normal primary T-cells (FIG. 2); assay type: cell-based, human
Text: as §2

C=Cc1c(C=O)c2cc3nc(c4c5[nH]c(cc6nc(cc1[nH]2)C(C)=C6CC)c(C)c5C(=O)C4C(=O)OCC)C(CCC(=O)OC)C3C (centres unmarked) [Tecomaphorbide]
IC50 (HL-60): 0.46 ± 0.11 µM | IC50 (MOLM-13): 0.58 ± 0.17 µM | IC50 (MV4-11): 0.62 ± 0.14 µM | IC50 (Jurkat): 1.21 ± 0.24 µM | IC50 (K562): 1.53 ± 0.19 µM | IC50 (U937): 1.38 ± 0.32 µM | IC50 (MCF-7): 2.66 ± 0.48 µM | IC50 (Caco-2): 2.83 ± 0.62 µM | IC50 (PC-3): 1.94 ± 0.35 µM | effect on apoptosis [1]: able to induce apoptosis | effect on apoptosis (normal primary T-cells): minimal impact
